Results from the NIST ThermoML archive (doi:10.1021/je5007407).
Several values for one entry are separate records, joined by “and”; a condition that tells them apart may be missing. Equal entries are not always repeated. Numbers after ± are expanded uncertainties.

Assay: xn = mol fraction of the nth substance listed
Settings: Gas, Frequency=2 MHz, Pulse-echo method

CCC [propane] + O=C=O
speed of sound (248.59 K, 8020 kPa, x2 = 0.9981): 802.3 ± 1.1 m/s | speed of sound (248.59 K, 8030 kPa, x2 = 0.9981): 802.3 ± 1.1 m/s | speed of sound (248.59 K, 14980 kPa, x2 = 0.9981): 856.8 ± 1 m/s | speed of sound (248.59 K, 24990 kPa, x2 = 0.9981): 923 ± 1 m/s | speed of sound (248.59 K, 50040 kPa, x2 = 0.9981): 1051.1 ± 1 m/s | speed of sound (248.59 K, 74970 kPa, x2 = 0.9981): 1149.9 ± 1 m/s | speed of sound (248.59 K, 100010 kPa, x2 = 0.9981): 1233.1 ± 1.1 m/s | speed of sound (248.59 K, 124970 kPa, x2 = 0.9981): 1303.8 ± 1.1 m/s | speed of sound (248.59 K, 150040 kPa, x2 = 0.9981): 1367.4 ± 1.2 m/s | speed of sound (248.88 K, 8270 kPa, x2 = 0.9376): 799.4 ± 1.1 m/s | speed of sound (248.88 K, 15030 kPa, x2 = 0.9376): 855.4 ± 1.1 m/s | speed of sound (248.88 K, 25030 kPa, x2 = 0.9376): 924.8 ± 1 m/s | speed of sound (248.88 K, 49910 kPa, x2 = 0.9376): 1056.8 ± 1 m/s | speed of sound (248.88 K, 75000 kPa, x2 = 0.9376): 1159.3 ± 1.1 m/s | speed of sound (248.88 K, 100010 kPa, x2 = 0.9376): 1246.2 ± 1.1 m/s | speed of sound (248.88 K, 125000 kPa, x2 = 0.9376): 1320.1 ± 1.1 m/s | speed of sound (248.88 K, 149990 kPa, x2 = 0.9376): 1385.8 ± 1.2 m/s | speed of sound (248.88 K, 174980 kPa, x2 = 0.9376): 1447.1 ± 1.2 m/s | speed of sound (249.03 K, 7920 kPa, x2 = 0.9683): 797.2 ± 1.1 m/s and 796.4 ± 1.1 m/s | speed of sound (249.03 K, 14790 kPa, x2 = 0.9683): 852.8 ± 1.1 m/s | speed of sound (249.03 K, 25010 kPa, x2 = 0.9683): 922.3 ± 1 m/s | speed of sound (249.03 K, 49980 kPa, x2 = 0.9683): 1052.6 ± 1 m/s | speed of sound (249.03 K, 75760 kPa, x2 = 0.9683): 1155.3 ± 1.1 m/s | speed of sound (249.03 K, 100410 kPa, x2 = 0.9683): 1239.6 ± 1.1 m/s | speed of sound (249.03 K, 125280 kPa, x2 = 0.9683): 1312.1 ± 1.1 m/s | speed of sound (249.03 K, 150010 kPa, x2 = 0.9683): 1377.4 ± 1.2 m/s | speed of sound (251.21 K, 8050 kPa, x2 = 0.9907): 786.8 ± 1.1 m/s | speed of sound (251.21 K, 8120 kPa, x2 = 0.9907): 787.6 ± 1.1 m/s | speed of sound (251.21 K, 15010 kPa, x2 = 0.9907): 844.2 ± 1.1 m/s | speed of sound (251.21 K, 25270 kPa, x2 = 0.9907): 913.8 ± 1 m/s | speed of sound (251.21 K, 50770 kPa, x2 = 0.9907): 1045.7 ± 1 m/s | speed of sound (251.21 K, 75170 kPa, x2 = 0.9907): 1143.2 ± 1 m/s | speed of sound (251.21 K, 101430 kPa, x2 = 0.9907): 1230.8 ± 1.1 m/s | speed of sound (251.21 K, 124940 kPa, x2 = 0.9907): 1299.1 ± 1.1 m/s | speed of sound (251.21 K, 150910 kPa, x2 = 0.9907): 1366.3 ± 1.2 m/s | speed of sound (273.25 K, 8170 kPa, x2 = 0.9376): 614.5 ± 1.5 m/s | speed of sound (273.25 K, 8180 kPa, x2 = 0.9376): 614.8 ± 1.5 m/s | speed of sound (273.25 K, 15190 kPa, x2 = 0.9376): 699.7 ± 1.2 m/s | speed of sound (273.25 K, 24920 kPa, x2 = 0.9376): 787.4 ± 1 m/s | speed of sound (273.25 K, 50000 kPa, x2 = 0.9376): 946.5 ± 1 m/s | speed of sound (273.25 K, 75020 kPa, x2 = 0.9376): 1062.2 ± 1 m/s | speed of sound (273.25 K, 100040 kPa, x2 = 0.9376): 1155.2 ± 1 m/s | speed of sound (273.25 K, 125010 kPa, x2 = 0.9376): 1236.3 ± 1.1 m/s | speed of sound (273.25 K, 150000 kPa, x2 = 0.9376): 1305.4 ± 1.1 m/s | speed of sound (273.25 K, 175050 kPa, x2 = 0.9376): 1369.6 ± 1.2 m/s | speed of sound (273.25 K, 200000 kPa, x2 = 0.9376): 1428.5 ± 1.2 m/s | speed of sound (273.34 K, 8010 kPa, x2 = 0.9683): 610.5 ± 1.3 m/s and 610.9 ± 1.3 m/s | speed of sound (273.34 K, 14920 kPa, x2 = 0.9683): 694.4 ± 1.2 m/s | speed of sound (273.34 K, 25000 kPa, x2 = 0.9683): 785 ± 1 m/s | speed of sound (273.34 K, 50050 kPa, x2 = 0.9683): 942.8 ± 1 m/s | speed of sound (273.34 K, 75530 kPa, x2 = 0.9683): 1058.9 ± 1 m/s | speed of sound (273.34 K, 100060 kPa, x2 = 0.9683): 1149.4 ± 1 m/s | speed of sound (273.34 K, 125060 kPa, x2 = 0.9683): 1229.3 ± 1.1 m/s | speed of sound (273.34 K, 148510 kPa, x2 = 0.9683): 1293.7 ± 1.1 m/s | speed of sound (273.34 K, 175030 kPa, x2 = 0.9683): 1360.3 ± 1.2 m/s | speed of sound (273.34 K, 200040 kPa, x2 = 0.9683): 1417.3 ± 1.2 m/s | speed of sound (273.39 K, 8050 kPa, x2 = 0.9907): 613.9 ± 1.3 m/s | speed of sound (273.39 K, 8070 kPa, x2 = 0.9907): 614 ± 1.3 m/s | speed of sound (273.39 K, 15140 kPa, x2 = 0.9907): 698.1 ± 1.2 m/s | speed of sound (273.39 K, 25280 kPa, x2 = 0.9907): 787.2 ± 1 m/s | speed of sound (273.39 K, 50080 kPa, x2 = 0.9907): 941.2 ± 1 m/s | speed of sound (273.39 K, 75540 kPa, x2 = 0.9907): 1055.9 ± 1 m/s | speed of sound (273.39 K, 100080 kPa, x2 = 0.9907): 1145.5 ± 1 m/s | speed of sound (273.39 K, 125360 kPa, x2 = 0.9907): 1225.5 ± 1.1 m/s | speed of sound (273.39 K, 150170 kPa, x2 = 0.9907): 1292.3 ± 1.1 m/s | speed of sound (273.39 K, 174970 kPa, x2 = 0.9907): 1354.8 ± 1.2 m/s | speed of sound (273.39 K, 199910 kPa, x2 = 0.9907): 1410.8 ± 1.2 m/s | speed of sound (273.41 K, 15200 kPa, x2 = 0.9981): 699 ± 1.1 m/s | speed of sound (273.41 K, 15230 kPa, x2 = 0.9981): 699 ± 1.1 m/s | speed of sound (273.41 K, 25030 kPa, x2 = 0.9981): 785.6 ± 1 m/s | speed of sound (273.41 K, 50020 kPa, x2 = 0.9981): 939.4 ± 1 m/s | speed of sound (273.41 K, 75010 kPa, x2 = 0.9981): 1052.3 ± 1 m/s | speed of sound (273.41 K, 100020 kPa, x2 = 0.9981): 1143.6 ± 1 m/s | speed of sound (273.41 K, 124950 kPa, x2 = 0.9981): 1220.2 ± 1.1 m/s | speed of sound (273.41 K, 150010 kPa, x2 = 0.9981): 1288.3 ± 1.1 m/s | speed of sound (273.41 K, 174990 kPa, x2 = 0.9981): 1349.1 ± 1.2 m/s | speed of sound (273.41 K, 200000 kPa, x2 = 0.9981): 1404.5 ± 1.2 m/s | speed of sound (298.13 K, 25110 kPa, x2 = 0.9907): 654.1 ± 0.9 m/s | speed of sound (298.13 K, 25180 kPa, x2 = 0.9907): 653.9 ± 0.9 m/s | speed of sound (298.13 K, 50020 kPa, x2 = 0.9907): 837.8 ± 1 m/s | speed of sound (298.13 K, 50040 kPa, x2 = 0.9981): 837.4 ± 0.9 m/s and 837.3 ± 0.9 m/s | speed of sound (298.13 K, 74940 kPa, x2 = 0.9981): 962.5 ± 0.9 m/s | speed of sound (298.13 K, 75230 kPa, x2 = 0.9907): 965 ± 1 m/s | speed of sound (298.13 K, 100020 kPa, x2 = 0.9981): 1061.9 ± 1 m/s | speed of sound (298.13 K, 100100 kPa, x2 = 0.9907): 1064 ± 1 m/s | speed of sound (298.13 K, 124970 kPa, x2 = 0.9907): 1147.9 ± 1 m/s | speed of sound (298.13 K, 125020 kPa, x2 = 0.9981): 1145.5 ± 1 m/s | speed of sound (298.13 K, 149790 kPa, x2 = 0.9907): 1220.2 ± 1.1 m/s | speed of sound (298.13 K, 150010 kPa, x2 = 0.9981): 1219.2 ± 1.1 m/s | speed of sound (298.13 K, 174530 kPa, x2 = 0.9907): 1285.6 ± 1.1 m/s | speed of sound (298.13 K, 174980 kPa, x2 = 0.9981): 1285.5 ± 1.1 m/s | speed of sound (298.13 K, 200010 kPa, x2 = 0.9981): 1346.1 ± 1.2 m/s | speed of sound (298.13 K, 200530 kPa, x2 = 0.9907): 1346.2 ± 1.2 m/s | speed of sound (298.14 K, 14950 kPa, x2 = 0.9683): 531.8 ± 1.3 m/s | speed of sound (298.14 K, 14960 kPa, x2 = 0.9683): 532.2 ± 1.3 m/s | speed of sound (298.14 K, 24980 kPa, x2 = 0.9683): 654.5 ± 1 m/s | speed of sound (298.14 K, 50050 kPa, x2 = 0.9683): 841.6 ± 1 m/s | speed of sound (298.14 K, 74950 kPa, x2 = 0.9683): 969 ± 1 m/s | speed of sound (298.14 K, 100060 kPa, x2 = 0.9683): 1070 ± 1 m/s | speed of sound (298.14 K, 125000 kPa, x2 = 0.9683): 1154.1 ± 1 m/s | speed of sound (298.14 K, 150290 kPa, x2 = 0.9683): 1228.9 ± 1.1 m/s | speed of sound (298.14 K, 175030 kPa, x2 = 0.9683): 1294.1 ± 1.1 m/s | speed of sound (298.14 K, 200020 kPa, x2 = 0.9683): 1354.1 ± 1.2 m/s | speed of sound (298.18 K, 8210 kPa, x2 = 0.9376): 388.5 ± 2.4 m/s | speed of sound (298.18 K, 15120 kPa, x2 = 0.9376): 538.7 ± 1.7 m/s and 538.6 ± 1.7 m/s | speed of sound (298.18 K, 24990 kPa, x2 = 0.9376): 659 ± 1 m/s | speed of sound (298.18 K, 49980 kPa, x2 = 0.9376): 846.6 ± 1 m/s | speed of sound (298.18 K, 75090 kPa, x2 = 0.9376): 975.1 ± 1 m/s
